Experimental data as given in patent US20210401928A1, “ANTI-OBESITY AGENT, POLLAKIURIA IMPROVING AGENT, AND AUTONOMIC NERVOUS ACTIVITY REGULATOR” (ASAHI GROUP HOLDINGS, LTD., priority 2018, published 2021).
Ends that are not written are not given here.

Test system: rat spontaneous urination
Assay: Rat spontaneous urination test (metabolism cage, 7 days ingestion from drinking)
Format: in vivo
Conditions: aqueous 0.1 mg/mL LNDP solution from drinking for 7 days
Method: It was confirmed from Test Example 2 that LNDP promotes the efferent hypogastric nerve activity, and it was confirmed from Test Example 3 that LNDP inhibits the efferent the pelvic splanchnic nerve activity. Influence on the bladder, which is one of the internal organs dominated by these nerves, was therefore investigated.
Male Wistar rats which are 13 weeks old were received, and quarantined and acclimated in a thermostat animal room at 18 to 28° C. in a cycle including a 12-hour light period and a 12-hour dark period for 1 week, and ten 14- to 16-week-old rats per group were tested. An aqueous 0.1 mg/mL LNDP solution or water was ingested from drinking for 7 days, and the urination amount was measured as weight with an electronic balance installed under a urine-collecting opening in raising with a metabolism cage. The weight data of the electronic balance every minute were automatically inputted into a computer. […] The total urination amount and the frequency of urination per day were found, and the urine amount per one time of urination (=the total urination amount per day/the frequency of urination per day) was calculated as to an individual of each group. […] As to the comparison of the test substance and ingestion days with respect to each measured value, two-way analysis of variance (two-way ANOVA) with replication was performed.

significant difference in general symptoms vs water ingestion group: not observed
Sequence: NIPPLTQTPVVVPPFLQPE [LNDP, Asn-Ile-Pro-Pro-Leu-Thr-Gln-Thr-Pro-Val-Val-Val-Pro-Pro-Phe-Leu-Gln-Pro-Glu]
significant difference in change in body weight vs water ingestion group: not observed
